One compound from the NIST ThermoML archive (doi:10.1021/acs.jced.5b00135) can be followed below.

Numbers after ± are expanded uncertainties.

Series [1] can be described thus: Molar enthalpy of transition or fusion. The conditions noted are these: Crystal; DSC.
The conditions of series [2]: Crystal; DTA.

For `C=CC(=O)NC(C)(C)C` [N-tert-butylacrylamide], the “Molar enthalpy of transition or fusion” value in series [1] came to 5.16 ± 0.263 kcal/mol. Besides, the Normal melting temperature in series [2] stood at 128.50 ± 0.7 °C.
